The results in this text go back to PMC4598760 (Biomolecules, 2015).

The subject of test [1] is influenza virus A/Mem71 (H3N1). As to conditions: for Kd: read-out: K*d (apparent).
The test system of test [2] is hemagglutinin (HA) on immobilized influenza virus A/Mem71 (H3N1). The format is binding, influenza A virus A/Memphis/1971.
For test [3], the system named is A/Udorn/307/1972 (A/Udorn72, H3N2).
In test [4] the test system is A/Philippines/2/82/X-79 (A/Philips, H3N2).

Where two headings read alike, the source gives them in different places. Where only a bound is given, the exact number is not on record here.

As to Neu5Acα2-6GalNAcα-Biotin [OS-18], the “virus binding to surface-bound glycan (in words)” value in test [1] was “binds”.
On to Neu5Acα2-3Galβ1-4Glcβ-Biotin [OS-11], for which, in test [1], the “K*off (apparent)” value turned out to be 4.1e-06 s⁻¹, the “K*on (apparent)” value was 7200 M⁻¹ s⁻¹ and the Kd came to 0.58 nM.
The like results for Neu5Acα2-6Galβ1-4Glcβ-Biotin [OS-21] were, in that order, <3e-06 s⁻¹, 7000 M⁻¹ s⁻¹ and < 0.43 nM.
In the case of Kdnα2-6Galβ1-4Glcβ-Biotin [OS-19], the “virus binding to surface-bound glycan (in words)” value in test [1] is “does not bind”.
For `CC(=O)N[C@H]1[C@H]([C@H](O)[C@H](O)CO)O[C@@](O[C@H]2[C@@H](O)[C@@H](CO)O[C@@H](O[C@H]3[C@H](O)[C@@H](O)C(O)O[C@@H]3CO)[C@@H]2O)(C(=O)O)C[C@@H]1O` (stereo partly drawn) [α2-3 sialyllactose (OS-11), α2-3-sialyllactose], the Kd stood at 26.3 mM in test [2]; 2.6 mM in test [2] (monovalent, 288 K); 6.4 mM in test [2] (monovalent, 293 K); 18.8 mM in test [2] (monovalent, 296 K). The Koff in test [2] came out at 0.0736 s⁻¹.
Turning to Neu5Gcα2-6Galβ1-4Glcβ-Biotin [OS-20], the results for the “virus binding to surface-bound glycan (in words)” value in test [3] and in test [4] were “binds” and “do not”, respectively.
Turning to `CC(=O)N[C@H]1[C@H]([C@H](O)[C@H](O)CO)O[C@@](OC[C@H]2O[C@@H](O[C@H]3[C@H](O)[C@@H](O)C(O)O[C@@H]3CO)[C@H](O)[C@@H](O)[C@H]2O)(C(=O)O)C[C@@H]1O` (stereo partly drawn) [α2-6 sialyllactose (OS-21), α2-6-sialyllactose], the Kd in test [2] was 47.6 mM; in test [2] (monovalent, 288 K), 6.8 mM; in test [2] (monovalent, 293 K), 11.2 mM; in test [2] (monovalent, 296 K) it was 23.8 mM. The Koff in test [2] stood at 0.128 s⁻¹.
